# Measured values as given in the OligoGym collection.
# Values joined by “and” are separate entries in the source; they are usually repeats but may differ in a detail not shown here. Equal values may be shown once. After the bases stand the sugars from the 5' end (letter, count) and the backbone: PS all phosphorothioate, else s phosphorothioate and o phosphodiester by linkage. HELM strings list units from the 5' end as sugar, base in round brackets, then linkage (d deoxyribose, r ribose, m 2'-O-methyl, p phosphodiester). Methylation of C is not given here. [moe] = 2'-O-(2-methoxyethyl) (MOE); [cEt] = constrained ethyl (cEt); [sp] = phosphorothioate linkage; e = 2'-O-(2-methoxyethyl) (MOE); k = constrained ethyl (cEt); d = 2'-deoxy (DNA)
# Legend:
# [1] = biological target: IRF5; conditions: ASO
# [2] = biological target: HBV; conditions: ASO
Substance,"target mRNA inhibition ([1]; KARPAS-229, 4 µM)","target mRNA inhibition ([2]; HepG2, 0.07 µM)",other results
"AAGGGCACAGACGCAGG (sugars kdddddddddkekeked, PS)",0%,–,–
"AAGGGCACAGCGCAGG (sugars k3 d10 k3, PS)",48% and 42%,–,–
"AATGCAACATCCATCA (sugars k3 d10 k3, PS)",0%,–,–
"ACATCTCCACATCAGT (sugars k2 d9 e3 k2, PS)",41%,–,–
"ACATCTCCACATCAGT (sugars k3 d9 k3 e1, PS)",11%,–,–
"ACATCTCCACATCAGT (sugars kkdddddddddkdkdk, PS)",28%,–,–
"ACATCTCCACATCAGT (sugars kkkddddddddkekek, PS)",14%,–,–
"ACCACTGTGTACCCCA (sugars k3 d10 k3, PS)",75% and 57%,–,"target mRNA inhibition ([1]; KARPAS-229, 0.44444 µM): 16%; target mRNA inhibition ([1]; KARPAS-229, 1.33333 µM): 41%; target mRNA inhibition ([1]; KARPAS-229, 12 µM): 65%"
"ACCACTGTGTACCCCA (sugars kekdddddddddeekk, PS)",63% and 62%,–,"target mRNA inhibition ([1]; KARPAS-229, 0.44444 µM): 28%; target mRNA inhibition ([1]; KARPAS-229, 1.33333 µM): 45%; target mRNA inhibition ([1]; KARPAS-229, 12 µM): 77%"
"ACCACTGTGTACCCCA (sugars kkddddddddkekekk, PS)",15%,–,–
"ACCACTGTGTACCCCA (sugars kkkdddddddddkeke, PS)",39%,–,–
"ACCATTCTATGCCTTT (sugars kkdddddddddkekek, PS)",40%,–,–
"ACCATTCTATGCCTTT (sugars kkddddddddkekekk, PS)",0%,–,–
"ACCATTCTATGCCTTT (sugars kkkdddddddddkeke, PS)",49%,–,–
"ACCATTCTATGCCTTT (sugars kkkddddddddkekek, PS)",15%,–,–
"ACCCAATGCAACATCC (sugars k3 d10 k3, PS)",33%,–,–
"ACGAGCAAAGGGTGAG (sugars k3 d10 k3, PS)",47%,–,–
"ACGAGTTATGGGAAGG (sugars k3 d10 k3, PS)",74% and 73%,–,"target mRNA inhibition ([1]; KARPAS-229, 0.44444 µM): 50%; target mRNA inhibition ([1]; KARPAS-229, 1.33333 µM): 54%; target mRNA inhibition ([1]; KARPAS-229, 12 µM): 81%"
"ACTGACACAGGCGGAT (sugars k2 d9 e3 k2, PS)",0%,–,–

Substance,"target mRNA inhibition ([1]; KARPAS-229, 4 µM)","target mRNA inhibition ([2]; HepG2, 0.07 µM)",other results
"ACTGACACAGGCGGAT (sugars kkddddddddddkeke, PS)",0%,–,–
"ACTGACACAGGCGGAT (sugars kkdddddddddkekek, PS)",0%,–,–
"ACTGTATTACCTATAC (sugars k3 d10 k3, PS)",22%,–,–
"AGACTTTTTGCTCTAA (sugars k3 d10 k3, PS)",0%,–,–
"AGATGGTGTTATCTCC (sugars kdddddddddkekeke, PS)",0%,–,–
"AGCTTGGTCTTGACCT (sugars kddddddddddkekek, PS)",0%,–,–
"AGGAAGTGAGTCTCAA (sugars k3 d9 k3 e1, PS)",47%,–,–
"AGGAAGTGAGTCTCAA (sugars k3 d10 k3, PS)",42%,–,–
"AGGAAGTGAGTCTCAA (sugars kddddddddddkekek, PS)",11%,–,–
"AGGAAGTGAGTCTCAA (sugars kkkddddddddkekek, PS)",24%,–,–
"AGGAGTGAGACGAGCA (sugars kddddddddddkekek, PS)",37%,–,–
"AGGAGTGAGACGAGCA (sugars kdddddddddkekeke, PS)",0%,–,–
"AGGAGTGAGACGAGCA (sugars kkddddddddkekekk, PS)",35%,–,–
"AGGAGTGAGACGAGCA (sugars kkkddddddddkdkdk, PS)",37%,–,–
"AGGTTCTTGGACTCTC (sugars kekdddddddddeekk, PS)",0%,–,–
"AGGTTCTTGGACTCTC (sugars kkkdddddddddkeke, PS)",0%,–,–
"AGGTTCTTGGACTCTC (sugars kkkddddddddkdkdk, PS)",0%,–,–
"AGTCATGGGCGTGAGGC (sugars kkddddddddkekekkd, PS)",17%,–,–
"AGTCATGGGCTGAGGC (sugars kddddddddddkekek, PS)",25%,–,–

Substance,"target mRNA inhibition ([1]; KARPAS-229, 4 µM)","target mRNA inhibition ([2]; HepG2, 0.07 µM)",other results
RNA1{[moe](T)[sp].[moe](A)[sp].[moe](T)[sp].d(G)[sp].d(C)[sp].d(C)[sp].d(T)[sp].d(A)[sp].d(C)[sp].d(A)[sp].d(G)[sp].d(C)[sp].[moe](C)[sp].[moe](T)[sp].[moe](C)[sp].[moe](C)}$$$$V2.0,–,49% and 46%,–
RNA1{[moe](T)[sp].[moe](C)[sp].[moe](C)[sp].[moe](G)[sp].[moe](C)[sp].d(A)[sp].d(G)[sp].d(T)[sp].d(A)[sp].d(T)[sp].d(G)[sp].d(G)[sp].d(A)[sp].d(T)[sp].[moe](C)[sp].[moe](G)}$$$$V2.0,–,75% and 59%,–
RNA1{[moe](T)[sp].[moe](C)[sp].[moe](C)[sp].[moe](G)[sp].d(C)[sp].d(A)[sp].d(G)[sp].d(T)[sp].d(A)[sp].d(T)[sp].d(G)[sp].d(G)[sp].d(A)[sp].[moe](T)[sp].[moe](C)[sp].[moe](G)[sp].[moe](G)}$$$$V2.0,–,72% and 65%,–
RNA1{[moe](T)[sp].[moe](C)[sp].d(C)[sp].d(G)[sp].d(C)[sp].d(A)[sp].d(G)[sp].d(T)[sp].d(A)[sp].d(T)[sp].d(G)[sp].[moe](G)[sp].[moe](A)[sp].[moe](T)[sp].[moe](C)[sp].[moe](G)[sp].[moe](G)}$$$$V2.0,–,74% and 70%,–
RNA1{[moe](T)[sp].[moe](C)[sp].d(C)[sp].d(G)[sp].d(C)[sp].d(A)[sp].d(G)[sp].d(T)[sp].d(A)[sp].d(T)[sp].d(G)[sp].[moe](G)[sp].[moe](A)[sp].[moe](T)[sp].[moe](C)[sp].[moe](G)}$$$$V2.0,–,70% and 62%,–
RNA1{[moe](T)[sp].[moe](G)[sp].[moe](A)[sp].[moe](A)[sp].[moe](G)[sp].d(C)[sp].d(G)[sp].d(A)[sp].d(A)[sp].d(G)[sp].d(T)[sp].d(G)[sp].d(C)[sp].d(A)[sp].[moe](C)[sp].[moe](A)}$$$$V2.0,–,59% and 47%,–
RNA1{[moe](T)[sp].[moe](G)[sp].[moe](A)[sp].[moe](G)[sp].[moe](G)[sp].[moe](C)[sp].d(A)[sp].d(T)[sp].d(A)[sp].d(G)[sp].d(C)[sp].d(A)[sp].d(G)[sp].d(C)[sp].d(A)[sp].[moe](G)[sp].[moe](G)}$$$$V2.0,–,58% and 44%,–
RNA1{[moe](T)[sp].[moe](G)[sp].[moe](A)[sp].d(A)[sp].d(G)[sp].d(C)[sp].d(G)[sp].d(A)[sp].d(A)[sp].d(G)[sp].d(T)[sp].d(G)[sp].[moe](C)[sp].[moe](A)[sp].[moe](C)[sp].[moe](A)}$$$$V2.0,–,76% and 66%,"target mRNA inhibition ([2]; HepG2, 0.0092593 µM): 11%; target mRNA inhibition ([2]; HepG2, 0.0277778 µM): 22%; target mRNA inhibition ([2]; HepG2, 0.0833333 µM): 44%; target mRNA inhibition ([2]; HepG2, 0.25 µM): 64%"
RNA1{[moe](T)[sp].[moe](G)[sp].[moe](A)[sp].d(G)[sp].d(A)[sp].d(G)[sp].d(A)[sp].d(A)[sp].d(G)[sp].d(T)[sp].d(C)[sp].d(C)[sp].d(A)[sp].[cEt](C)[sp].[cEt](C)[sp].[cEt](A)}$$$$V2.0,–,35% and 41%,–
RNA1{[moe](T)[sp].[moe](G)[sp].[moe](C)[sp].d(A)[sp].d(G)[sp].d(A)[sp].d(G)[sp].d(G)[sp].d(T)[sp].d(G)[sp].d(A)[sp].d(A)[sp].[moe](G)[sp].[moe](C)[sp].[moe](G)[sp].[moe](A)[sp].[moe](A)}$$$$V2.0,–,75% and 63%,–
RNA1{[moe](T)[sp].[moe](G)[sp].[moe](C)[sp].d(A)[sp].d(G)[sp].d(A)[sp].d(G)[sp].d(G)[sp].d(T)[sp].d(G)[sp].d(A)[sp].d(A)[sp].d(G)[sp].[cEt](C)[sp].[cEt](G)[sp].[cEt](A)}$$$$V2.0,–,78% and 79%,–
RNA1{[moe](T)[sp].[moe](G)[sp].[moe](G)[sp].[moe](A)[sp].d(G)[sp].d(C)[sp].d(C)[sp].d(A)[sp].d(C)[sp].d(C)[sp].d(A)[sp].d(G)[sp].d(C)[sp].[moe](A)[sp].[moe](G)[sp].[moe](G)}$$$$V2.0,–,47% and 35%,–
RNA1{[moe](T)[sp].[moe](G)[sp].[moe](G)[sp].d(A)[sp].d(G)[sp].d(C)[sp].d(C)[sp].d(A)[sp].d(C)[sp].d(C)[sp].d(A)[sp].d(G)[sp].[moe](C)[sp].[moe](A)[sp].[moe](G)[sp].[moe](G)}$$$$V2.0,–,58% and 57%,–
RNA1{[moe](T)[sp].[moe](G)[sp].[moe](G)[sp].d(A)[sp].d(G)[sp].d(C)[sp].d(C)[sp].d(A)[sp].d(C)[sp].d(C)[sp].d(A)[sp].d(G)[sp].d(C)[sp].[cEt](A)[sp].[cEt](G)[sp].[cEt](G)}$$$$V2.0,–,60% and 67%,–
RNA1{[moe](T)[sp].[moe](G)[sp].d(C)[sp].d(A)[sp].d(G)[sp].d(A)[sp].d(G)[sp].d(G)[sp].d(T)[sp].d(G)[sp].d(A)[sp].[moe](A)[sp].[moe](G)[sp].[moe](C)[sp].[moe](G)[sp].[moe](A)[sp].[moe](A)}$$$$V2.0,–,39% and 45%,–
RNA1{[moe](T)[sp].[moe](T)[sp].[moe](C)[sp].[moe](C)[sp].d(G)[sp].d(C)[sp].d(A)[sp].d(G)[sp].d(T)[sp].d(A)[sp].d(T)[sp].d(G)[sp].d(G)[sp].[moe](A)[sp].[moe](T)[sp].[moe](C)[sp].[moe](G)}$$$$V2.0,–,56% and 38%,–
RNA1{[moe](T)[sp].[moe](T)[sp].[moe](T)[sp].[moe](A)[sp].d(T)[sp].d(G)[sp].d(C)[sp].d(C)[sp].d(T)[sp].d(A)[sp].d(C)[sp].d(A)[sp].d(G)[sp].[moe](C)[sp].[moe](C)[sp].[moe](T)[sp].[moe](C)}$$$$V2.0,–,54% and 37%,–
RNA1{[moe](T)[sp].[moe](T)[sp].[moe](T)[sp].d(A)[sp].d(T)[sp].d(G)[sp].d(C)[sp].d(C)[sp].d(T)[sp].d(A)[sp].d(C)[sp].d(A)[sp].d(G)[sp].[cEt](C)[sp].[cEt](C)[sp].[cEt](T)}$$$$V2.0,–,45% and 55%,–
RNA1{[moe](T)[sp].[moe](T)[sp].d(T)[sp].d(A)[sp].d(T)[sp].d(G)[sp].d(C)[sp].d(C)[sp].d(T)[sp].d(A)[sp].d(C)[sp].[moe](A)[sp].[moe](G)[sp].[moe](C)[sp].[moe](C)[sp].[moe](T)}$$$$V2.0,–,46% and 47%,–
